The compounds below were run against T1, USP25 (USP25-His6, Boston Biochem E-546) (Homo sapiens, UniProt Q9UHP3) (assay: Ubiquitin-Rhodamine 110 Assay for USP25 Activity, Example A-2). Conditions: Ubiquitin-Rhodamine 110 assay, Example A-2; read-out: USP25 A-2 IC50 range.
T1 construct: His6; purchased Boston Biochem E-546
T1 sequence (Q9UHP3 1-1055): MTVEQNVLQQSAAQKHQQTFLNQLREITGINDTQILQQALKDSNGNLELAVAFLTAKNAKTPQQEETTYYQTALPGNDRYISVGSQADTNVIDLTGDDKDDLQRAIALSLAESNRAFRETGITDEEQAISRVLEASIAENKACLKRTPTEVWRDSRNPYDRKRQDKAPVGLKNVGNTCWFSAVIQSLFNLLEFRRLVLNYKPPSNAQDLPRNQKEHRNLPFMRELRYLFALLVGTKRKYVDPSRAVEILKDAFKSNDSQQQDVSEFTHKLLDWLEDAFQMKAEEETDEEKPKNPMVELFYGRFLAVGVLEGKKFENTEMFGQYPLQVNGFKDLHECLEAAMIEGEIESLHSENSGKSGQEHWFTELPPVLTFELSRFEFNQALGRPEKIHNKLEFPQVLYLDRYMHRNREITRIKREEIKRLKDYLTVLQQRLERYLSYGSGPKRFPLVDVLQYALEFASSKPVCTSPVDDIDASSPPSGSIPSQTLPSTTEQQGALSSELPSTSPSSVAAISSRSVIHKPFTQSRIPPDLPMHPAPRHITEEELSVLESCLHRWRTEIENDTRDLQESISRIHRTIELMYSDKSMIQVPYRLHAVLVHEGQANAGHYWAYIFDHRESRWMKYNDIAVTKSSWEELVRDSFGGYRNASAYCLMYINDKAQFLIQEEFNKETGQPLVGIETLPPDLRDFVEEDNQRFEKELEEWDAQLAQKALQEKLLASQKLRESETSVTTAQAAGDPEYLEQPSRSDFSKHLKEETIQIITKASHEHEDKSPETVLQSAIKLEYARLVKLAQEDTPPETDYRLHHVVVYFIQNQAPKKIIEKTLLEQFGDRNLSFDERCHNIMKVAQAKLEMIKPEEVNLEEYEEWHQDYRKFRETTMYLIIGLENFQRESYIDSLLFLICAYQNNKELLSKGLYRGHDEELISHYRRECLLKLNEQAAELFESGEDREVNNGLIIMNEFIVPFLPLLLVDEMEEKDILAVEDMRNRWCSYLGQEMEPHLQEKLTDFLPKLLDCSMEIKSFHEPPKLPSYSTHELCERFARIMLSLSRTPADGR
Format: biochemical
Outline: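 Cleavage of ubiquitin-rhodamine 110 (25 nM, well below Km) by His-tagged USP25 at 75 pM is measured fluorimetrically after 45 min at room temperature and acid quench. Inhibitors are preincubated with enzyme for 30 minutes. IC50 values come from four-parameter logistic curve fitting.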
With `Cc1ccc2c(N)c(C(=O)N[C@H]3COc4cc(N5C[C@@H](N)[C@H](OC(F)(F)F)C5)ccc4C3)sc2n1` (single isomer, unassigned) [Example 3-9] the IC50 was 200 to 2000 nM. Compound `Cc1ccc2c(N)c(C(=O)N[C@H]3COc4cc(N5C[C@H](OC(F)(F)F)[C@@H](N)C5)ccc4C3)sc2n1` (single isomer, unassigned) [Example 3-10] has an IC50 of 200 to 2000 nM. Work on `Cc1ccc2c(N)c(C(=O)N[C@H]3COc4c(cc(F)c(N5CCNCC5)c4F)C3)sc2n1` (single isomer, unassigned) [Example 3-17] yielded an IC50 of 50 to 200 nM. In the case of `Cc1ccc2c(N)c(C(=O)N[C@@H]3COc4c(cc(F)c(N5CCNCC5)c4F)C3)sc2n1` (single isomer, unassigned) [Example 3-18], the IC50 is reported as > 2000 nM. `Cc1ccc2c(N)c(C(=O)N[C@H]3COc4cc(N5C[C@H](N)CC56COC6)ccc4C3)sc2n1` (single isomer, unassigned) [Example 351] showed an IC50 of 1 to 50 nM. For `Cc1ccc2c(N)c(C(=O)N[C@H]3COc4cc(N5C[C@@H](N)CC56COC6)ccc4C3)sc2n1` (single isomer, unassigned) [Example 352], the IC50 was 50 to 200 nM. `O=C(N[C@H]1CCc2c(c(F)cc(N3CC4CCC(C3)N4)c2C(F)F)C1)c1cnc2c(c1)[C@@H]1C[C@@H]1CN2` (single isomer, unassigned) [Example 359] was tested, and the IC50 was > 2000 nM. `O=C(N[C@H]1CCc2c(c(F)cc(N3CC4CCC(C3)N4)c2C(F)F)C1)c1cnc2c(c1)[C@H]1C[C@H]1CN2` (single isomer, unassigned) [Example 360] was tested, and the IC50 was 200 to 2000 nM. In the case of `O=C(N[C@@H]1CCc2c(c(F)cc(N3CC4CCC(C3)N4)c2C(F)F)C1)c1cnc2c(c1)[C@@H]1C[C@@H]1CN2` (single isomer, unassigned) [Example 361], the IC50 is reported as > 2000 nM. `O=C(N[C@@H]1CCc2c(c(F)cc(N3CC4CCC(C3)N4)c2C(F)F)C1)c1cnc2c(c1)[C@H]1C[C@H]1CN2` (single isomer, unassigned) [Example 362] was tested, and the IC50 was 200 to 2000 nM. `Cc1ccc2c(N)c(C(=O)N[C@H]3COc4cc(N5C[C@H](N)[C@@H](F)C5)ccc4C3)sc2n1` [Example 3-7, 3-amino-N-((R)-7-((3S,4S)-3-amino-4-fluoropyrrolidin-1-yl)chroman-3-yl)-6-methylthieno[2,3-b]pyridine-2-carboxamide] showed an IC50 of 200 to 2000 nM. With `Cc1ccc2c(N)c(C(=O)N[C@H]3COc4cc(N5C[C@@H](N)[C@H](F)C5)ccc4C3)sc2n1` [Example 3-8, 3-amino-N-((R)-7-((3R,4R)-3-amino-4-fluoropyrrolidin-1-yl)chroman-3-yl)-6-methylthieno[2,3-b]pyridine-2-carboxamide] the IC50 was 200 to 2000 nM. For `Cc1ccc2c(N)c(C(=O)N[C@H]3COc4cc(N5CCN[C@@H](C(F)(F)F)C5)ccc4C3)sc2n1` [Example 3-11, 3-amino-6-methyl-N-((R)-7-((R)-3-(trifluoromethyl)piperazin-1-yl)chroman-3-yl)thieno[2,3-b]pyridine-2-carboxamide], the IC50 was 200 to 2000 nM. Compound `Cc1ccc2c(N)c(C(=O)N[C@H]3COc4cc(N5CCN[C@H](C(F)(F)F)C5)ccc4C3)sc2n1` [Example 3-12, 3-amino-6-methyl-N-((R)-7-((S)-3-(trifluoromethyl)piperazin-1-yl)chroman-3-yl)thieno[2,3-b]pyridine-2-carboxamide] has an IC50 of 200 to 2000 nM. With `Cc1ccc2c(N)c(C(=O)N[C@H]3COc4cc(N5CC[C@]6(CCCNC6)C5)ccc4C3)sc2n1` [Example 3-13, N-((R)-7-((S)-2,7-diazaspiro[4.5]decan-2-yl)chroman-3-yl)-3-amino-6-methylthieno[2,3-b]pyridine-2-carboxamide] the IC50 was 200 to 2000 nM. In the case of `Cc1ccc2c(N)c(C(=O)N[C@H]3COc4cc(N5CC[C@@]6(CCCNC6)C5)ccc4C3)sc2n1` [Example 3-14, N-((R)-7-((R)-2,7-diazaspiro[4.5]decan-2-yl)chroman-3-yl)-3-amino-6-methylthieno[2,3-b]pyridine-2-carboxamide], the IC50 is reported as 50 to 200 nM. Compound `O=C(N[C@H]1COc2cc(N3CC4CCC(C3)N4)ccc2C1)c1cnc2c(c1)[C@@H]1C[C@@H]1CN2` [Example 3-15, (1aS,7bR)-N-((3R)-7-(3,8-diazabicyclo[3.2.l]octan-3-yl)chroman-3-yl)-1a,2,3,7b-tetrahydro-1H-cyclopropa[c][1,8]naphthyridine-6-carboxamide] has an IC50 of 50 to 200 nM. With `O=C(N[C@H]1COc2cc(N3CC4CCC(C3)N4)ccc2C1)c1cnc2c(c1)[C@H]1C[C@H]1CN2` [Example 3-16, (1aR,7bS)-N-((3R)-7-(3,8-diazabicyclo[3.2.1]octan-3-yl)chroman-3-yl)-1a,2,3,7b-tetrahydro-1H-cyclopropa[c][1,8]naphthyridine-6-carboxamide] the IC50 was > 2000 nM. Compound `Cc1ccc2c(N)c(C(=O)N[C@H]3COc4cc(N5CCC(F)(F)CC5)ccc4C3)sc2n1` [Example 5-1, (R)-3-amino-N-(7-(4,4-difluoropiperidin-1-yl)chroman-3-yl)-6-methylthieno[2,3-b]pyridine-2-carboxamide] has an IC50 of 50 to 200 nM. `Cc1ccc2c(N)c(C(=O)N[C@H]3COc4cc(N5CCS(=O)(=O)CC5)ccc4C3)sc2n1` [Example 5-2, (R)-3-amino-N-(7-(1,1-dioxidothiomorpholino)chroman-3-yl)-6-methylthieno[2,3-b]pyridine-2-carboxamide] gave an IC50 of 50 to 200 nM. Work on `Cc1ccc2c(N)c(C(=O)N[C@H]3COc4cc(N5CC(O)(C(F)(F)F)C5)ccc4C3)sc2n1` [Example 5-3, (R)-3-amino-N-(7-(3-hydroxy-3-(trifluoromethyl)azetidin-1-yl)chroman-3-yl)-6-methylthieno[2,3-b]pyridine-2-carboxamide] yielded an IC50 of 200 to 2000 nM. `Cc1ccc2c(N)c(C(=O)N[C@H]3COc4cc(N5CC6COCC(C5)C6(F)F)ccc4C3)sc2n1` [Example 5-4, 3-amino-N-((3R)-7-(9,9-difluoro-3-oxa-7-azabicyclo[3.3.1]nonan-7-yl)chroman-3-yl)-6-methylthieno[2,3-b]pyridine-2-carboxamide] was tested, and the IC50 was 50 to 200 nM. In the case of `Cc1ccc2c(N)c(C(=O)N[C@H]3COc4cc(N5CCC(C(=O)O)CC5)ccc4C3)sc2n1` [Example 6-1, (R)-1-(3-(3-Amino-6-methylthieno[2,3-b]pyridine-2-carboxamido)chroman-7-yl)piperidine-4-carboxylic Acid], the IC50 is reported as > 2000 nM. `Cc1ccc2c(N)c(C(=O)N[C@H]3COc4cc(N5CC[C@@H](C(=O)O)C5)ccc4C3)sc2n1` [Example 6-2, (R)-1-((R)-3-(3-amino-6-methylthieno[2,3-b]pyridine-2-carboxamido)chroman-7-yl)pyrrolidine-3-carboxylic acid] was tested, and the IC50 was > 2000 nM. In the case of `Cc1ccc2c(N)c(C(=O)N[C@H]3COc4cc(N5CC[C@H](C(=O)O)C5)ccc4C3)sc2n1` [Example 6-3, (S)-1-((R)-3-(3-amino-6-methylthieno[2,3-b]pyridine-2-carboxamido)chroman-7-yl)pyrrolidine-3-carboxylic acid], the IC50 is reported as > 2000 nM. With `Cc1cnc2c(N)c(C(=O)N[C@H]3CCc4cc(N5CC(C(=O)O)C5)ccc4C3)sc2n1` [Example 6-4, (S)-1-(6-(7-amino-3-methylthieno[2,3-b]pyrazine-6-carboxamido)-5,6,7,8-tetrahydronaphthalen-2-yl)azetidine-3-carboxylic acid] the IC50 was > 2000 nM. For `Cc1ccc2c(N)c(C(=O)N[C@H]3COc4cc(N5CCC(O)CC5)ccc4C3)sc2n1` [Example 7-1, (R)-3-amino-N-(7-(4-hydroxypiperidin-1-yl)chroman-3-yl)-6-methylthieno[2,3-b]pyridine-2-carboxamide], the IC50 was 200 to 2000 nM. `Cc1ccc2c(N)c(C(=O)N[C@H]3COc4cc(N5CCC[C@](C)(O)C5)ccc4C3)sc2n1` [Example 7-2] showed an IC50 of 200 to 2000 nM. With `Cc1ccc2c(N)c(C(=O)N[C@H]3COc4cc(N5CCC[C@@](C)(O)C5)ccc4C3)sc2n1` [Example 7-3, 3-amino-N-((R)-7-((R)-3-hydroxy-3-methylpiperidin-l-yl)chroman-3-yl)-6-methylthieno[2,3-b]pyridine-2-carboxamide] the IC50 was 200 to 2000 nM. In the case of `Cc1ccc2c(N)c(C(=O)N[C@H]3CCc4nc(N5C[C@H](N)[C@H](C(F)F)C5)ccc4C3)sc2n1` [Example 345, 3-amino-N-[(6S)-2-[(3R,4R)-3-amino-4-(difluoromethyl)pyrrolidin-1-yl]-5,6,7,8-tetrahydroquinolin-6-yl]-6-methylthieno[2,3-b]pyridine-2-carboxamide], the IC50 is reported as 200 to 2000 nM.
